Results as given in patent publication US11098102B2, “Insulin conjugates” (SANOFI, priority 2018, dated 2021).

target: T1, immobilized human serum albumin (Homo sapiens, UniProt P02768); experiment: Albumin binding: affinity chromatography on columns with immobilized human serum albumin (net retention time); details: isolated binders; HSA column 25° C., PBS pH 7.4/isopropanol gradient
T1 construct: purchased Chiralpak (Chiraltech) 34712
Description: In order to identify suitable binder molecules, which when bound to a peptide, such as an insulin, are able to improve the half-life in plasma and to prolong the profile of action, a system was established based on affinity chromatography with serum albumin columns, i.e. columns with immobilized serum albumin.
The net retention time of the binders (samples) was calculated according to the following formula: Net retention time=RetTimeSample−RetTimet0 marker
• Instrument: Waters Alliance 2795/Waters PDA 2996 or Waters H-Class UPLC equipped with a Waters Acquity photodiode-array detector • Software: Waters Empower 3 • Column: […]® HSA 50×4 mm; 5 μm Particle size • Chiraltech Order Numbers: HSA: 34712 • Eluent A: Phosphate Buffer saline (PBS) at pH=7.4 • Gibco PBS pH7.4 (10×) Phosphate Buffered Saline 500 ml; • Order Number: 70011-036 (500 ml) • Eluent B: Isopropanol • Fisher Order Number: A461-1 (10 • Gradient:
• Column temperature: 25° C. • Flow rate: 1.0 ml/min • Detection: λ=220 nm • Injection volume: 20 μL • Sample Conc.: 1 mg/ml insulin solution in PBS for insulin samples • 5 μL of 10 mM DMSO stock solution (DMSO evaporated and re-dissolved in 200 μL i-propanol/water 1:1 v/v) for isolated binder samples (250 μM, 0.2 mg/ml at 800 Da MolWeight) • t0 marker Sodium Nitrate (NaNO3) solution in water, 0.05 mg/ml • Diluted from aqueous 1 mg/ml stock solution (Fluka Order Number: 74246-100ML) • Reported Value Net retention time of sample: RetTime Sample−RetTime t0 marker
Affinity chromatography was carried out i) for insulin conjugates according to Examples 3.3 and 3.4 on a Waters Alliance Separation Module 2695 equipped with a Waters photodiode-array detector 2996 or Waters H-Class UPLC equipped with a Waters Acquity photodiode-array detector and ii) for isolated binders according to Example 2.11 on a Waters Alliance Separation Module 2795 equipped with a Waters photodiode-array detector 2996 or Waters H-Class UPLC equipped with a Waters Acquity photodiode-array detector.
Columns with immobilized human serum albumin (50×4 mm; 5 μm particle size) were purchased from Chiralpak and used for separations.
The columns with immobilized serum albumin were kept at 25° C. during the LC run, UV detection was carried out at 220 nm and injection volume was 20 μL.
The net retention time of the samples was reported according to Net retention time=RetTime Sample−RetTime t0 marker

T1 sequence (P02768 25-609): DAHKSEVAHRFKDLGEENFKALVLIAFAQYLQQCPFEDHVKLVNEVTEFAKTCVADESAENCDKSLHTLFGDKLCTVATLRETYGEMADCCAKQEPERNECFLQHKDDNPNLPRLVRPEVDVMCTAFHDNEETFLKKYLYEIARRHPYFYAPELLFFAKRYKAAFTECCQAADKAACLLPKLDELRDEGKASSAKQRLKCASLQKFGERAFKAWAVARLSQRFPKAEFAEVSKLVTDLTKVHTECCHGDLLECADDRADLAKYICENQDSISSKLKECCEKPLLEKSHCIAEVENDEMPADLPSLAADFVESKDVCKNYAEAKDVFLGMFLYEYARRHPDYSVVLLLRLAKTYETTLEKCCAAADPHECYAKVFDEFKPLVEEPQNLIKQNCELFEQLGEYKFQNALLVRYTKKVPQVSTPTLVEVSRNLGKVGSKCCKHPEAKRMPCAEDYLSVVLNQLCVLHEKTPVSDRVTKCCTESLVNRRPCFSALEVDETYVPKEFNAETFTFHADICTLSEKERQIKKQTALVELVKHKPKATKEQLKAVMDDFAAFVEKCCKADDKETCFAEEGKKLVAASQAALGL

Row | Compound | NRT [min] (net retention time on columns with immobilized human serum albumin)
1 | O=C(O)CCCCCCCc1ccc(CCOc2ccc(S(=O)(=O)Nc3ccc(C(=O)NCCOCCOCC(=O)NCCOCCOCC(=O)O)cn3)cc2)cc1 [Binder 46] | 14.48
2 | O=C(O)CCCCCCCc1cc(Oc2ccc(S(=O)(=O)Nc3ncc(C(=O)NCCOCCOCC(=O)NCCOCCOCC(=O)O)cn3)cc2)ccc1F [Binder 63] | 13.42
3 | O=C(O)CCCCCCCCCCCCCCCc1ccc(S(=O)(=O)Nc2ncc(C(=O)NCCOCCOCC(=O)NCCOCCOCC(=O)O)cn2)cc1 [Binder 54] | 15.19
4 | O=C(O)CCCCCCCCCCCCCCCOc1cccc(S(=O)(=O)Nc2ncc(C(=O)NCCOCCOCC(=O)NCCOCCOCC(=O)O)cn2)c1 [Binder 68] | 14.74
5 | O=C(O)CCCCCCCCCCCCCCOc1ccc(S(=O)(=O)Nc2ccc(C(=O)NCCOCCOCC(=O)NCCOCCOCC(=O)O)cn2)cc1 [Binder 9] | 14.01
6 | O=C(O)CCCCCCCCCCCCCCCOc1ccc(S(=O)(=O)Nc2ncc(C(=O)NCCOCCOCC(=O)NCCOCCOCC(=O)O)c(C(F)(F)F)n2)cc1 [Binder 45] | 13.8
7 | O=C(O)CCCCCCCCCCCc1cccc(S(=O)(=O)Nc2ccc(C(=O)NCCOCCOCC(=O)NCCOCCOCC(=O)O)cn2)c1 [Binder 65] | 12.21
8 | O=C(O)CCCCCCCCCc1ccc(S(=O)(=O)Nc2ccc(C(=O)NCCOCCOCC(=O)NCCOCCOCC(=O)O)cn2)cc1 [Binder 67] | 10.99
9 | O=C(O)CCCCCCCCCCCCCc1cccc(S(=O)(=O)Nc2ncc(C(=O)NCCOCCOCC(=O)NCCOCCOCC(=O)O)cn2)c1 [Binder 29] | 15.66
10 | O=C(O)CCCCCCCCCCCCCCCCCOc1ccc(S(=O)(=O)Nc2ccc(C(=O)NCCOCCOCC(=O)NCCOCCOCC(=O)O)cn2)cc1 [Binder 70] | 14.26
11 | O=C(O)CCCCCCCCCCCCCCOc1ccc(S(=O)(=O)Nc2ncc(C(=O)NCCOCCOCC(=O)NCCOCCOCC(=O)O)cn2)cc1 [Binder 5] | 14.32
12 | O=C(O)CCCCCCCCCCCCCCCOc1ccc(S(=O)(=O)Nc2ncc(C(=O)NCCOCCOCC(=O)NCCOCCOCC(=O)O)cn2)cc1Cl [Binder 50] | 13.74
13 | O=C(O)CCCCCCCCCCCc1ccc(S(=O)(=O)Nc2ncc(C(=O)NCCOCCOCC(=O)NCCOCCOCC(=O)O)cn2)cc1 [Binder 53] | 12.29
14 | O=C(O)CCCCCCCCCCCCCCCc1ccc(S(=O)(=O)Nc2ccc(C(=O)NCCOCCOCC(=O)NCCOCCOCC(=O)O)cn2)cc1 [Binder 59] | 15.47
15 | O=C(O)CCCCCCCCCCCCCc1cccc(S(=O)(=O)Nc2ccc(C(=O)NCCOCCOCC(=O)NCCOCCOCC(=O)O)cn2)c1 [Binder 21] | 16.26
16 | O=C(O)CCCCCCCCCCCCCCOc1ccc(S(=O)(=O)Nc2ncc(C(=O)CCCCCCC(=O)NCCOCCOCC(=O)NCCOCCOCC(=O)O)cn2)cc1 [Binder 6] | 14.31

Row | Compound | NRT [min] (net retention time on columns with immobilized human serum albumin)
17 | O=C(O)CCCCCCCCCCCCCc1ccc(OCc2ccc(S(=O)(=O)Nc3ccc(C(=O)NCCOCCOCC(=O)NCCOCCOCC(=O)O)cn3)cc2)cc1 [Binder 44] | 15.04
18 | O=C(O)CCCCCCCCCCCCCCCOc1cc(Cl)c(S(=O)(=O)Nc2ncc(C(=O)NCCOCCOCC(=O)NCCOCCOCC(=O)O)cn2)cc1Cl [Binder 72] | 13.96
19 | O=C(O)CCCCCCCCCCCCCCCCCCCOc1ccc(S(=O)(=O)Nc2ccc(C(=O)NCCOCCOCC(=O)NCCOCCOCC(=O)O)cn2)cc1 [Binder 71] | 14.42
20 | O=C(O)CCCCCCCCCCCCCc1ccc(OCc2ccc(S(=O)(=O)Nc3ncc(C(=O)NCCOCCOCC(=O)NCCOCCOCC(=O)O)cn3)cc2)cc1 [Binder 64] | 14.78
21 | O=C(O)CCCCCCCCCCCc1ccc(Oc2ccc(S(=O)(=O)Nc3ccc(C(=O)NCCOCCOCC(=O)NCCOCCOCC(=O)O)cn3)cc2)cc1 [Binder 27] | 15.01
22 | O=C(O)CCCCCCCCCCCCCc1ccc(Oc2ccc(S(=O)(=O)Nc3ccc(C(=O)NCCOCCOCC(=O)NCCOCCOCC(=O)O)cn3)cc2)cc1 [Binder 42] | 14.35
23 | O=C(O)CCCCCCCCCc1ccc(Oc2ccc(S(=O)(=O)Nc3ncc(C(=O)NCCOCCOCC(=O)NCCOCCOCC(=O)O)cn3)cc2)cc1F [Binder 52] | 14.56
24 | O=C(O)CCCCCCCCCCCCCCCCCc1cccc(S(=O)(=O)Nc2ncc(C(=O)NCCOCCOCC(=O)NCCOCCOCC(=O)O)cn2)c1 [Binder 41] | 14.98
25 | O=C(O)CCCCCCCCCCCCCCCOc1ccc(S(=O)(=O)Nc2ccc(C(=O)NCCOCCOCC(=O)NCCOCCOCC(=O)O)cn2)cc1Cl [Binder 51] | 13.59
26 | O=C(O)CCCCCCCCCCCCCc1cc(Oc2ccc(S(=O)(=O)Nc3ncc(C(=O)NCCOCCOCC(=O)NCCOCCOCC(=O)O)cn3)cc2)ccc1F [Binder 8] | 15.29
27 | O=C(O)CCCCCCCCCCCCCCCCCOc1ccc(S(=O)(=O)Nc2ncc(C(=O)NCCOCCOCC(=O)NCCOCCOCC(=O)O)cn2)cc1 [Binder 69] | 14.24
28 | O=C(O)CCCCCCCCCc1ccc(S(=O)(=O)Nc2ncc(C(=O)NCCOCCOCC(=O)NCCOCCOCC(=O)O)cn2)cc1 [Binder 66] | 9.87
29 | Cc1nc(NS(=O)(=O)c2ccc(OCCCCCCCCCCCCCCCC(=O)O)cc2)ncc1C(=O)NCCOCCOCC(=O)NCCOCCOCC(=O)O [Binder 47] | 13.73
30 | O=C(O)CCCCCCCc1ccc(CCOc2ccc(S(=O)(=O)Nc3ccc(C(=O)NCCOCCOCC(=O)NCCOCCOCC(=O)O)cn3)cc2)cc1 [Binder 43] | 11.36
31 | O=C(O)CCCCCCCCCCCCCCCCCc1cccc(S(=O)(=O)Nc2ncc(C(=O)NCCOCCOCC(=O)NCCOCCOCC(=O)O)cn2)c1 [Binder 55] | 15.01
32 | O=C(O)CCCCCCCCCc1ccc(OCc2ccc(S(=O)(=O)Nc3ncc(C(=O)NCCOCCOCC(=O)NCCOCCOCC(=O)O)cn3)cc2)cc1 [Binder 1] | 16.76

target: insulin receptor isoform B (IR-B) (Homo sapiens, UniProt P06213); experiment: Insulin receptor autophosphorylation assay (In-Cell Western, CHO cells, Example 8B); format: cell-based; design: expressed in transfected cells; host or cells: CHO cells; details: relative to human insulin
Sequence (P06213 28-758 limits assumed): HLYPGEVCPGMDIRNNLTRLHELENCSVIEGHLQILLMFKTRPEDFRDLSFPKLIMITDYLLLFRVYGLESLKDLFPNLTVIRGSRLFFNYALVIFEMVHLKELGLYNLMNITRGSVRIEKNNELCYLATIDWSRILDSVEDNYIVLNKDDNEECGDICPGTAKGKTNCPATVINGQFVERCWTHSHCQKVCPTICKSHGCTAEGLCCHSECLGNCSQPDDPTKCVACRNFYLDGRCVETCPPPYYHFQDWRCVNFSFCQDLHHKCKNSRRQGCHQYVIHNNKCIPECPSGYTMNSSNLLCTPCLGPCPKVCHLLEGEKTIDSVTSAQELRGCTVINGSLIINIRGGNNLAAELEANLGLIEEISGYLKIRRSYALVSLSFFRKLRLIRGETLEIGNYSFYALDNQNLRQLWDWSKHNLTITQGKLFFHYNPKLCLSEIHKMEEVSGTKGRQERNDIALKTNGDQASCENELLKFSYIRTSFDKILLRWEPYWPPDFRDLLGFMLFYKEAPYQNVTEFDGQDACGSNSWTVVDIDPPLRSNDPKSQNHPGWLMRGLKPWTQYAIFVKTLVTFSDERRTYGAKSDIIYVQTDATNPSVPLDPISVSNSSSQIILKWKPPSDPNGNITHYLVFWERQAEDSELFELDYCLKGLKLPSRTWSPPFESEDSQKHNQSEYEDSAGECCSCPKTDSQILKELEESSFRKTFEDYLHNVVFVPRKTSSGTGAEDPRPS
Sequence (P06213 763-1382 limits assumed): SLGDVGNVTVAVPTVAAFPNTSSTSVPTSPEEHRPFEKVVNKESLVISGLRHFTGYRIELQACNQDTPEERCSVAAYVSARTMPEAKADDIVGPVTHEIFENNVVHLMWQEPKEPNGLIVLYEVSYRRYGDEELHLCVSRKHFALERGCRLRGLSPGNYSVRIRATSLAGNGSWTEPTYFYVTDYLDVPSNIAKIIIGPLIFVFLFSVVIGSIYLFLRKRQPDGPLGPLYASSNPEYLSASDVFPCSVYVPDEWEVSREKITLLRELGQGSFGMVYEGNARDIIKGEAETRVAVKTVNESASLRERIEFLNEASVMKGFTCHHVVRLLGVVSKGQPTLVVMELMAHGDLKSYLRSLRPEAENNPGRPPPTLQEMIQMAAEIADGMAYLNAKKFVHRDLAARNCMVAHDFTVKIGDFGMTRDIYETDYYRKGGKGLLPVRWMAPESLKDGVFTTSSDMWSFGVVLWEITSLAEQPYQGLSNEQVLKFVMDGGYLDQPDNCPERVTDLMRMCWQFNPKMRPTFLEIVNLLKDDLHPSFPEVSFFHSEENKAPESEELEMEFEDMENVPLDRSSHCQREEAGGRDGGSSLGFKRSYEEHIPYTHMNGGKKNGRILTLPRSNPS

Row | Compound | autophosphorylation activity
33 | O=C(O)CCCCCCCCCCCCCc1cccc(S(=O)(=O)Nc2ncc(C(=O)NCCOCCOCC(=O)NCCOCCOCC(=O)O)cn2)c1 [Binder 29] | 0.01
34 | O=C(O)CCCCCCCCCCCCCCOc1ccc(S(=O)(=O)Nc2ncc(C(=O)CCCCCCC(=O)NCCOCCOCC(=O)NCCOCCOCC(=O)O)cn2)cc1 [Binder 6] | 0.32
35 | O=C(O)CCCCCCCCCCCc1ccc(Oc2ccc(S(=O)(=O)Nc3ccc(C(=O)NCCOCCOCC(=O)NCCOCCOCC(=O)O)cn3)cc2)cc1 [Binder 27] | 0.11
36 | O=C(O)CCCCCCCCCCCCCc1cc(Oc2ccc(S(=O)(=O)Nc3ncc(C(=O)NCCOCCOCC(=O)NCCOCCOCC(=O)O)cn3)cc2)ccc1F [Binder 8] | 0.17
